Measurements as given in patent US20050222200A1, “AMIDE DERIVATIVES AS ION CHANNEL LIGANDS AND PHARMACEUTICAL COMPOSITIONS AND METHODS OF USING THE SAME” (Renovis, Inc., priority 2003, published 2005).

Legend:
VR1 [1] = biological target: T1, VR1 (Rattus norvegicus, UniProt O35433); test: Calcium imaging assay: inhibition of capsaicin induced calcium influx in DRG neurons (Fura2, microscope); format: cell-based; set-up: endogenous in cells; host or cells: DRG neurons
Outline: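 Fura2-loaded rat DRG neurons imaged by microscope; test compound perfused 1 min, then capsaicin (250 nM) applied with compound for 20–60 s. Calcium influx followed as 340/380 nm fluorescence ratio; inhibition above 75% scored positive.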

VR1 [2] = biological target: T1, VR1; test: Whole-cell patch clamp electrophysiology: inhibition of capsaicin induced current in DRG neurons; format: cell-based, rats; set-up: Dorsal root ganglion (DRG) neurons were recovered from either neonatal or adult rats; endogenous in cells; host or cells: primary rat dorsal root ganglion neurons
From the text: Whole-cell patch clamp electrophysiology
Dorsal root ganglion (DRG) neurons were recovered from either neonatal or adult rats and plated onto poly-D-lysine coated glass coverslips. The plated neurons were transferred into a chamber to allow drug solutions to be added to the cells using a computer-controlled solenoid-valve based perfusion system. The cells were imaged using standard DIC optics. Cells were patched using finely-pulled glass electrodes. Voltage-clamp electrophysiology experiments were carried out using an Axon Instruments Multiclamp amplified controlled by pCLAMP8 software.
The cells were placed into a whole-cell voltage clamp and held at a voltage of –80mV while monitoring the membrane current in gap-free recording mode.
500nM capsaicin was added for 30 seconds as a control. Test compounds at various concentrations were added to the cells for 1 minute prior to a 30 second capsaicin application. Differences between control experiments and drug positive capsaicin experiments were used to determine the efficacy of each test compound. All compounds that inhibited capsaicin induced current greater than 50% were considered positives.

T1 sequence (O35433 whole entry, the tested form may be a part): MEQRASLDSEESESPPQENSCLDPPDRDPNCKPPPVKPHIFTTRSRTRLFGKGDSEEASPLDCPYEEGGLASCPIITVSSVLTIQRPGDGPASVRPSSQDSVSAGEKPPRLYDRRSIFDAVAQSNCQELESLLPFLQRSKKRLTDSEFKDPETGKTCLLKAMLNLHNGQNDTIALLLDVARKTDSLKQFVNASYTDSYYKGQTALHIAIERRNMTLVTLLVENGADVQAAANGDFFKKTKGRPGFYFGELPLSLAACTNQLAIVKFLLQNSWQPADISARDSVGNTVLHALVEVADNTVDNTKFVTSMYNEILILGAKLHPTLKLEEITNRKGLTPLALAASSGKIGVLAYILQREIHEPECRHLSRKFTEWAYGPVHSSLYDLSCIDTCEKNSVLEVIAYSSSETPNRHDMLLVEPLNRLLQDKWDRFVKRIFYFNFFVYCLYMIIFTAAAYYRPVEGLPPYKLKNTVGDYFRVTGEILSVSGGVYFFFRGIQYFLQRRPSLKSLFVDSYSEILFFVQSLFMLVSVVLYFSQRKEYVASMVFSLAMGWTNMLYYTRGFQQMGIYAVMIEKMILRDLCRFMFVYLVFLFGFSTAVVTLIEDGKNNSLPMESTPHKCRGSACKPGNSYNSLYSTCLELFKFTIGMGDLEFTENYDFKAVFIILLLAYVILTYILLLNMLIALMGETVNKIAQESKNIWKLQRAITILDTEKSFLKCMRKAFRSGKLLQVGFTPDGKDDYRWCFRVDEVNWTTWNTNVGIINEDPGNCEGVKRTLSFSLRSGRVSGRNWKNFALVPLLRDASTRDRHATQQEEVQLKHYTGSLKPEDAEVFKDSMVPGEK

COc1cc(NC(=O)c2ccc(/C=C/C(C)C)cc2)cc(C(F)(F)F)c1 [Compound 155]
inhibition at 0.3 µM (VR1 [1]; DRG neuron, concentration 300 nM, treatment time 20 sec, capsaicin 250 nM, DRG neurons): < 75%
fluorescence reflecting calcium ion influx when administered with capsaicin (Figure 1) (VR1 [1]; administered with capsaicin): reduced
inhibition at 0.1 µM (VR1 [2]; DRG neuron, concentration 100 nM, treatment time 20 seconds, 500nM capsaicin, held at -80mV, DRG neurons): 50%
calcium influx in neurons, capsaicin in presence of compound vs capsaicin alone (Figure 2) (VR1 [2]; same neurons, capsaicin alone as comparison): less calcium influx
